From US20230079045A1 (priority 2019, published 2023)
Like-named read-outs stand apart in the source and are kept apart here.

Legend:
IFVA/Weiss/43 = experiment: cytopathic effect (CPE) antiviral test in MDCK cells, IFVA/Weiss/43; type: cell-based, influenza virus
IFVA/Mal/302/54 = experiment: cytopathic effect (CPE) antiviral test in MDCK cells, IFVA/Mal/302/54; type: cell-based, influenza virus
[1] = unidentified influenza virus, MDCK, 120 h, read-out: EC50(IFVA/Weiss/43), MDCK cells, CPE method, CCK-8 cell viability, 5 days
[2] = unidentified influenza virus, MDCK, 120 h, read-out: EC50(IFVA/Mal/302/54), MDCK cells, CPE method, CCK-8 cell viability, 5 days

| Compound | EC50 (IFVA/Weiss/43; [1]) | EC50 (IFVA/Mal/302/54; [2]) | EC50 (IFVA/Weiss/43; read-out: EC50(IFVA/Weiss/43), MDCK cells, CPE method, CCK-8 cell viability, 5 days) | EC50 (IFVA/Mal/302/54; read-out: EC50(IFVA/Mal/302/54), MDCK cells, CPE method, CCK-8 cell viability, 5 days) |
| --- | --- | --- | --- | --- |
| CC(=O)Nc1ccc2oc(-c3ccnc(C(=O)N4CCC5(CC4)CN(C(c4ccccc4)c4nnn(C)n4)C5)c3)nc2c1 (centres unmarked) [Compound 13, N-(2-(2-(2-((2-methyl-2H-tetrazol-5-yl)(phenyl)methyl)-2,7-diazaspiro[3.5]nonane-7-carbonyl)pyridin-4-yl)benzo[d]oxazol-5-yl)acetamide] | > 10000 nM | 7830 nM | – | – |
| CC(=O)Nc1ccc2oc(-c3ccnc(C(=O)N4CCN(C(c5ccccc5)c5nnn(C)n5)[C@H](C)C4)c3)nc2c1 (single isomer, unassigned) [Compound 16b] | > 10000 nM | > 10000 nM | – | – |
| CC(=O)Nc1cc2nc(-c3ccnc(C(=O)N4CCN(C(c5ccccc5)c5nnn(C(F)F)n5)CC4)c3)oc2cc1F (centres unmarked) [Compound 59, N-(2-(2-(4-((2-(difluoromethyl)-2H-tetrazol-5-yl)(phenyl)methyl)piperazine-1-carbonyl)pyridin-4-yl)-6-fluorobenzo[d]oxazol-5-yl)acetamide] | 56 nM | 58 nM | – | – |
| CC(=O)Nc1cc(F)c2oc(-c3ccnc(C(=O)N4CCN(C(c5ccccc5)c5nnn(C(F)F)n5)CC4)c3)nc2c1 (centres unmarked) [Compound 61, N-(2-(2-(4-((2-(difluoromethyl)-2H-tetrazol-5-yl)(phenyl)methyl)piperazine-1-carbonyl)pyridin-4-yl)-7-fluorobenzo[d]oxazol-5-yl)acetamide] | 28 nM | 78 nM | – | – |
| CC(=O)Nc1ccc2nc(-c3ccnc(C(=O)N4CCN(C(c5ccccc5)c5nnn(C(F)F)n5)CC4)c3)oc2c1 (centres unmarked) [Compound 70, N-(2-(2-(4-((2-(difluoromethyl)-2H-tetrazol-5-yl)(phenyl)methyl)piperazine-1-carbonyl)pyridin-4-yl)benzo[d]oxazol-6-yl)acetamide] | 32 nM | 32 nM | – | – |
| Cn1nnc(C(c2ccccc2)N2CCN(C(=O)c3cc(-c4nc5cc(OC(F)F)ccc5o4)ccn3)CC2)n1 (centres unmarked) [Compound 44, (4-(5-(difluoromethoxy)benzo[d]oxazol-2-yl)pyridin-2-yl)(4-((2-methyl-2H-tetrazol-5-yl)(phenyl)methyl)piperazin-1-yl)methanone] | 110 nM | 65 nM | – | – |
| CC(=O)Nc1ccc2oc(-c3ccnc(C(=O)N4C[C@H]5C[C@@H]4CN5C(c4ccccc4)c4nnn(C)n4)c3)nc2c1 (stereo partly drawn) [Compound 6b, N-(2-(2-((1R,4R)-5-((2-methyl-2H-tetrazol-5-yl)(phenyl)methyl)-2,5-diazabicyclo[2.2.1]heptane-2-carbonyl)pyridin-4-yl)benzo[d]oxazol-5-yl)acetamide] | – | – | > 10000 nM | > 10000 nM |
| Cn1nnc(C(c2ccccc2)N2C[C@H]3CC[C@@H](C2)N3C(=O)c2cc(-c3nc4cc(N5CCCC5=O)ccc4o3)ccn2)n1 (stereo partly drawn) [Compound 19, 1-(2-(2-((1R,5S)-3-((2-methyl-2H-tetrazol-5-yl)(phenyl)methyl)-3,8-diazabicyclo[3.2.1]octane-8-carbonyl)pyridin-4-yl)benzo[d]oxazol-5-yl)pyrrolidin-2-one] | 23 nM | 19 nM | – | – |
| O=C(Nc1ccc2oc(-c3ccnc(C(=O)N4C5CCC4CN(C(c4ccccc4)c4nnn(C(F)F)n4)C5)c3)nc2c1)C1CC1 (centres unmarked) [Compound 175, N-(2-(2-(3-((2-(difluoromethyl)-2H-tetrazol-5-yl)(phenyl)methyl)-3,8-diazabicyclo[3.2.1]octane-8-carbonyl)pyridin-4-yl)benzo[d]oxazol-5-yl)cyclopropanecarboxamide] | 13 nM | 21 nM | – | – |
| CC(C)C(=O)Nc1ccc2oc(-c3ccnc(C(=O)N4CCN(C(c5ccccc5)c5nnn(C(F)F)n5)CC4)c3)nc2c1 (racemic) [Compound 97, (R/S)—N-(2-(2-(4-((2-(difluoromethyl)-2H-tetrazol-5-yl)(phenyl)methyl)piperazine-1-carbonyl)pyridin-4-yl)benzo[d]oxazol-5-yl)isobutyramide] | 7 nM | 6 nM | – | – |
| CC(=O)Nc1ccc2oc(-c3ccnc(C(=O)N4CC5CCC(C4)N5C(c4ccccc4)c4nnn(C)n4)c3)nc2c1 (centres unmarked) [Compound 1, N-(2-(2-(8-((2-methyl-2H-tetrazol-5-yl)(phenyl)methyl)-3,8-diazabicyclo[3.2.1]octane-3-carbonyl)pyridin-4-yl)benzo[d]oxazol-5-yl)acetamide] | 480 nM | 573 nM | – | – |
| CC(=O)Nc1ccc2oc(-c3ccnc(C(=O)N4CCN(C(c5ccccc5)c5nnn(C(F)F)n5)CC4)c3F)nc2c1 (racemic) [Compound 79, (R/S)—N-(2-(2-(4-((2-(difluoromethyl)-2H-tetrazol-5-yl)(phenyl)methyl)piperazine-1-carbonyl)-3-fluoropyridin-4-yl)benzo[d]oxazol-5-yl)acetamide] | 7 nM | 13 nM | – | – |
| CS(=O)(=O)Nc1ccc2oc(-c3ccnc(C(=O)N4CCN(C(c5ccccc5)c5nnn(C(F)F)n5)CC4)c3)nc2c1 (centres unmarked) [Compound 34] | > 10000 nM | > 10000 nM | – | – |
| Cn1nnc(C(c2ccccc2)N2CCN(C(=O)c3cc(-c4nc5cc(N6CCCC6=O)ccc5o4)ccn3)CC2)n1 (centres unmarked) [Compound 2, 1-(2-(2-(4-((2-methyl-2H-tetrazol-5-yl)(phenyl)methyl)piperazine-1-carbonyl)pyridin-4-yl)benzo[d]oxazol-5-yl)pyrrolidin-2-one] | < 5 nM | 26 nM | – | – |
| CC(=O)Nc1ccc2oc(-c3ccnc(C(=O)N4C5CCC4CN(C(c4ccccc4)c4nnnn4C(F)F)C5)c3)nc2c1 (centres unmarked) [Compound 18, N-(2-(2-(3-((1-(difluoromethyl)-1H-tetrazol-5-yl)(phenyl)methyl)-3,8-diazabicyclo[3.2.1]octane-8-carbonyl)pyridin-4-yl)benzo[d]oxazol-5-yl)acetamide] | 422 nM | 177 nM | – | – |
| CC(=O)Nc1ccc2oc(-c3ccnc(C(=O)N4CCN(C(c5ccc(F)cc5)c5nnn(C)n5)CC4)c3)nc2c1 (centres unmarked) [Compound 12, N-(2-(2-(4-((4-fluorophenyl)(2-methyl-2H-tetrazol-5-yl)methyl)piperazine-1-carbonyl)pyridin-4-yl)benzo[d]oxazol-5-yl)acetamide] | 22 nM | 55 nM | – | – |
| CC(=O)Nc1ccc2nn(-c3ccnc(C(=O)N4CCN(C(c5ccccc5)c5nnn(C(F)F)n5)CC4)c3)cc2c1 (centres unmarked) [Compound 60, N-(2-(2-(4-((2-(difluoromethyl)-2H-tetrazol-5-yl)(phenyl)methyl)piperazine-1-carbonyl)pyridin-4-yl)-2H-indazol-5-yl)acetamide] | 54 nM | 84 nM | – | – |
| Cn1nnc(C(c2ccccc2)N2CCN(C(=O)c3cc(-c4nc5cc(NC(=O)[C@@H]6C[C@@H]6F)ccc5o4)ccn3)CC2)n1 (stereo partly drawn) [Compound 26, (1S,2S)-2-fluoro-N-(2-(2-(4-((2-methyl-2H-tetrazol-5-yl)(phenyl)methyl)piperazine-1-carbonyl)pyridin-4-yl)benzo[d]oxazol-5-yl)cyclopropane-1-carboxamide] | 3 nM | 20 nM | – | – |
| CC(=O)Nc1ccc2oc(-c3ccnc(C(=O)N4CC5(C4)CN(C(c4ccccc4)c4nnn(C)n4)C5)c3)nc2c1 (centres unmarked) [Compound 10, N-(2-(2-(6-((2-methyl-2H-tetrazol-5-yl)(phenyl)methyl)-2,6-diazaspiro[3.3]heptane-2-carbonyl)pyridin-4-yl)benzo[d]oxazol-5-yl)acetamide] | > 10000 nM | > 10000 nM | – | – |
| O=C(Nc1ccc2oc(-c3ccnc(C(=O)N4CCN(C(c5ccccc5)c5nnn(C(F)F)n5)CC4)c3)nc2c1)[C@@H]1C[C@@H]1F (mixture of isomers) [Compound 31, (1S,2S)-2-fluoro-N-(2-(2-(4-((2-difluoromethyl-2H-tetrazol-5-yl)(phenyl)methyl)piperazine-1-carbonyl)pyridin-4-yl)benzo[d]oxazol-5-yl)cyclopropane-1-carboxamide] | 2 nM | 7 nM | – | – |
| COC(=O)Nc1ccc2oc(-c3ccnc(C(=O)N4CCN(C(c5ccccc5)c5nnn(C)n5)CC4)c3)nc2c1 (centres unmarked) [Compound 51, Methyl (2-(2-(4-((2-methyl-2H-tetrazol-5-yl)(phenyl)methyl)piperazine-1-carbonyl)pyridin-4-yl)benzo[d]oxazol-5-yl)carbamate] | 84 nM | 34 nM | – | – |
| CC(=O)Nc1ccc2oc(-c3ccnc(C(=O)N4C5CCC4CN(C(c4ccccc4)c4nnn(C(F)F)n4)C5)c3)nc2c1 (centres unmarked) [Compound 17, N-(2-(2-(3-((2-(difluoromethyl)-2H-tetrazol-5-yl)(phenyl)methyl)-3,8-diazabicyclo[3.2.1]octane-8-carbonyl)pyridin-4-yl)benzo[d]oxazol-5-yl)acetamide] | 9 nM | 22 nM | – | – |
| CC(=O)Nc1ccc2oc(-c3ccnc(C(=O)N4CCC(O)(C(c5ccccc5)c5nnn(C)n5)CC4)c3)nc2c1 (centres unmarked) [Compound 47, N-(2-(2-(4-hydroxy-4-((2-methyl-2H-tetrazol-5-yl)(phenyl)methyl)piperidine-1-carbonyl)pyridin-4-yl)benzo[d]oxazol-5-yl)acetamide] | 35 nM | 81 nM | – | – |
| CC(=O)Nc1ccc2oc(-c3ccnc(C(=O)N4CC5(CCN(C(c6ccccc6)c6nnn(C)n6)CC5)C4)c3)nc2c1 (centres unmarked) [Compound 8, N-(2-(2-(7-((2-methyl-2H-tetrazol-5-yl)(phenyl)methyl)-2,7-diazaspiro[3.5]nonane-2-carbonyl)pyridin-4-yl)benzo[d]oxazol-5-yl)acetamide] | > 10000 nM | > 10000 nM | – | – |
| O=C(Nc1ccc2oc(-c3ccnc(C(=O)N4CCN(C(c5ccccc5)c5nnn(C(F)F)n5)CC4)c3)nc2c1)[C@H]1C[C@@H]1F (stereo partly drawn) [Compound 32, (1R,2S)-2-fluoro-N-(2-(2-(4-((2-difluoromethyl-2H-tetrazol-5-yl)(phenyl)methyl)piperazine-1-carbonyl)pyridin-4-yl)benzo[d]oxazol-5-yl)cyclopropane-1-carboxamide] | 26 nM | 3 nM | – | – |
